Assay results taken from US11168102B1, “Bicyclic heteroaryl compounds and uses thereof” (Revolution Medicines, Inc., priority 2019, dated 2021).

Each compound was assayed on cellular pERK in PC-9 cells (EGFR Ex19Del) (assay: Potency assay: pERK (AlphaLISA SureFire Ultra p-ERK1/2) in PC-9 cells). Conditions: Homo sapiens, PC-9, 1 h, PC-9 cells (EGFR Ex19Del), 1 hour incubation, AlphaLISA SureFire Ultra p-ERK1/2; read-out: SOS1 pERK IC50.
Type: cell-based
With C[C@@H](Nc1ncnc2c1cc(C(=O)N1CCc3cnccc31)c(=O)n2C)c1cccc(C(F)F)c1F [Example 26-27] the IC50 was 0.803 µM. Compound C[C@@H](Nc1ncnc2c1cc(C1CCS(=O)(=O)CC1)c(=O)n2C)c1cccc(-c2ccccc2CN)c1 [Example 33-17] has an IC50 of 0.285 µM. CC(=O)N1CC=C(c2cc3c(N[C@H](C)c4cccc(C(F)F)c4F)ncnc3n(C)c2=O)CC1 [Example 1-16] gave an IC50 of 0.119 µM. With CO[C@]1(c2cc3c(N[C@H](C)c4cccc(C(F)F)c4F)ncnc3n(C)c2=O)CCN(C(C)=O)C(C)(C)C1 [Example 32-52] the IC50 was 0.0181 µM. With C[C@@H](Nc1ncnc2c1cc(Sc1ccccc1)c(=O)n2C)c1cccc(C(F)F)c1F [Example 30, 4-{[(1R)-1-[3-(difluoromethyl)-2-fluorophenyl]ethyl]amino}-8-methyl-6-(phenylsulfanyl)-7H,8H-pyrido[2,3-d]pyrimidin-7-one] the IC50 was 2.76 µM. With COC1(c2cc3c(N[C@H](C)c4cccc(C(F)F)c4F)ncnc3n(C)c2=O)CCN(C(C)=O)CC1 [Example 32-1] the IC50 was 0.124 µM. C[C@@H](Nc1ncnc2c1cc(C1(N)CC3(C1)CS(=O)(=O)C3)c(=O)n2C)c1cccc(C(F)F)c1F [Example 31-4] was tested, and the IC50 was 0.18 µM. Work on C[C@@H](Nc1ncnc2c1cc(C(=O)N1CC[C@@H]3CCO[C@@H]31)c(=O)n2C)c1cccc(C(F)F)c1F [Example 26-17] yielded an IC50 of 0.195 µM. With CC(=O)N1CCC(c2cc3c(N[C@H](C)c4cccc(C(F)(F)C5CN(C6CC6)CCO5)c4F)ncnc3n(C)c2=O)CC1 (stereo partly drawn) [Example 55, 6-(1-acetyl-4-piperidyl)-4-[[(1R)-1-[3-[(4-cyclopropylmorpholin-2-yl)-difluoro-methyl]-2-fluoro-phenyl]ethyl]amino]-8-methyl-pyrido[2,3-d]pyrimidin-7-one] the IC50 was 0.109 µM. Work on CC(=O)N1CCC(OC2CC2)(c2cc3c(N[C@H](C)c4cccc(C(F)F)c4F)ncnc3n(C)c2=O)CC1 [Example 32-44] yielded an IC50 of 0.0321 µM. For CC(=O)N1CC[C@@H](c2cc3c(N[C@H](C)c4cccc(C(F)F)c4F)ncnc3n(C)c2=O)C1 [Example 33-14], the IC50 was 0.271 µM. In the case of C[C@@H](Nc1ncnc2c1cc(C1(N)CS(=O)(=O)C1)c(=O)n2C)c1cccc(C(F)F)c1F [Example 31-6], the IC50 is reported as 0.191 µM. For COC1(c2cc3c(N[C@H](C)c4cccc(C(F)F)c4F)ncnc3n(C)c2=O)CC2(CCN(C(C)=O)C2)C1 (stereo partly shown) [Example 32-21], the IC50 was 0.393 µM. CO[C@]1(c2cc3c(N[C@H](C)c4cccc(C(F)F)c4F)ncnc3n(C)c2=O)CCN(S(C)(=O)=O)C1 [Example 32-16] was tested, and the IC50 was 0.268 µM. COC1(c2cc3c(N[C@H](C)c4cccc(C(F)F)c4F)ncnc3n(C)c2=O)CCN(C(C)=O)C(C)(C)C1 (stereo partly shown) [Example 32-29] gave an IC50 of 0.0537 µM. COC1(c2cc3c(N[C@H](C)c4cccc(C(F)F)c4F)nc(C)nc3n(C)c2=O)CC2(CN(C(C)=O)C2)C1 [Example 32-26] showed an IC50 of 0.0418 µM. C[C@@H](Nc1ncnc2c1cc(C1CCS(=O)(=NC(N)=O)CC1)c(=O)n2C)c1cccc(C(F)F)c1F (stereo partly shown) [Example 33-24] was tested, and the IC50 was 0.293 µM. Compound COC1(c2cc3c(N[C@H](C)c4cccc(C(F)F)c4F)ncnc3n(C)c2=O)CCC2CN(C(C)=O)CC21 (stereo partly shown) [Example 32-35] has an IC50 of 0.244 µM. Work on C[C@@H](Nc1ncnc2c1cc(C1CCC3(CC1)CS(=O)(=O)C3)c(=O)n2C)c1cccc(C(F)F)c1F [Example 33-2] yielded an IC50 of 0.0716 µM. Compound COC1(c2cc3c(N[C@H](C)c4cccc(C(F)F)c4F)ncnc3n(C)c2=O)CC2(C1)CS(=O)(=O)C2 [Example 32-5] has an IC50 of 0.0357 µM. With COC1(c2cc3c(N[C@H](C)c4cccc(C(F)F)c4F)ncnc3n(C)c2=O)CCN(S(C)(=O)=O)CC1 [Example 32-24] the IC50 was 0.0697 µM. For CO[C@]1(c2cc3c(N[C@H](C)c4cccc(C(F)F)c4F)ncnc3n(C)c2=O)CCN(C(C)=O)[C@@H](C)C1 [Example 32-31], the IC50 was 0.0101 µM. Compound CO[C@]1(c2cc3c(N[C@H](C)c4cccc(C(F)F)c4F)nc(C)nc3n(C)c2=O)CCN(C(C)=O)C1 [Example 32-62] has an IC50 of 0.0108 µM. For COC1(c2cc3c(N[C@H](C)c4cccc(C(F)F)c4F)ncnc3n(C)c2=O)CCS(=N)(=O)CC1 (single isomer, unassigned) [Example 49], the IC50 was 0.0755 µM. In the case of C[C@@H](Nc1ncnc2c1cc(C1(F)CCS(=O)(=O)CC1)c(=O)n2C)c1cccc(C(F)F)c1F [Example 29, 4-(4-{[(1R)-1-[3-(difluoromethyl)-2-fluorophenyl]ethyl]amino}-8-methyl-7-oxo-7H,8H-pyrido[2,3-d]-pyrimidin-6-yl)-4-fluoro-1λ^6-thiane-1,1-dione], the IC50 is reported as 0.0346 µM. C[C@@H](Nc1ncnc2c1cc(C1CC[S+]([O-])CC1)c(=O)n2C)c1cccc(C(F)F)c1F (stereo partly drawn) [Example 25, (R)-4-((1-(3-(difluoromethyl)-2-fluorophenyl)ethyl)amino)-8-methyl-6-(1-oxidotetrahydro-2H-thiopyran-4-yl)pyrido[2,3-d]pyrimidin-7(8H)-one] showed an IC50 of 0.122 µM.

Same assay, conditions: Homo sapiens, PC-9, 1 h, read-out: SOS1 pERK IC50
In the case of C[C@@H](Nc1ncnc2c1cc(C1(C#N)CCN(C3COC3)CC1)c(=O)n2C)c1cccc(C(F)F)c1F [Example 36-16], the IC50 is reported as 0.222 µM. For COC1(c2cc3c(N[C@H](C)c4cccc(C(F)F)c4F)ncnc3n(C)c2=O)CCN(C)CC1 [Example 32-3], the IC50 was 2.24 µM.

Same assay, conditions: PC-9 cells (EGFR Ex19Del), 1 hour incubation, AlphaLISA SureFire Ultra p-ERK1/2; read-out: SOS1 pERK IC50
C[C@@H](Nc1ncnc2c1cc(C1CCS(=O)(=NC3CC3)CC1)c(=O)n2C)c1cccc(C(F)F)c1F (single isomer, unassigned) [Example 64-1] gave an IC50 of 0.0263 µM. With C[C@@H](Nc1ncnc2c1cc(C1(F)CCC3(CC1)CS(=O)(=NC1CC1)C3)c(=O)n2C)c1cccc(C(F)F)c1F (single isomer, unassigned) [Example 56-1] the IC50 was 0.121 µM. C[C@@H](Nc1ncnc2c1cc(C1CCS(=O)(=O)C1)c(=O)n2C)c1cccc(C(F)F)c1F (stereo partly shown) [Example 33-21] gave an IC50 of 0.0522 µM. For C[C@@H](Nc1ncnc2c1cc(C1=CCS(=O)(=NC3COC3)CC1)c(=O)n2C)c1cccc(C(F)F)c1F (stereo partly drawn) [Example 66, 4-(((R)-1-(3-(difluoromethyl)-2-fluorophenyl)ethyl)amino)-8-methyl-6-((R)-1-(oxetan-3-ylimino)-1-oxido-1,2,3,6-tetrahydro-1λ^6-thiopyran-4-yl)pyrido[2,3-d]pyrimidin-7(8H)-one], the IC50 was 0.0291 µM. With C[C@@H](Nc1ncnc2c1cc(C1=CCS(=O)(=NC3COC3)CC1)c(=O)n2C)c1cccc(C(F)F)c1F (stereo partly drawn) [Example 65, 4-(((R)-1-(3-(difluoromethyl)-2-fluorophenyl)ethyl)amino)-8-methyl-6-((S)-1-(oxetan-3-ylimino)-1-oxido-1,2,3,6-tetrahydro-1λ^6-thiopyran-4-yl)pyrido[2,3-d]pyrimidin-7(8H)-one] the IC50 was 0.0668 µM. For CC1CC(c2cc3c(N[C@H](C)c4cccc(C(F)F)c4F)ncnc3n(C)c2=O)CCS1(=O)=O (stereo partly shown) [Example 33-9], the IC50 was 0.27 µM. Work on C[C@@H](Nc1ncnc2c1cc(C1(F)CCS(=O)(=O)C1)c(=O)n2C)c1cccc(C(F)F)c1F (stereo partly shown) [Example 29-12] yielded an IC50 of 0.0536 µM. COC1(c2cc3c(N[C@H](C)c4cccc(C(F)F)c4F)ncnc3n(C)c2=O)CCS(=O)(=O)C(C)C1 (stereo partly shown) [Example 32-65] showed an IC50 of 0.0503 µM. C[C@@H](Nc1ncnc2c1cc(C1(F)CCS(=N)(=O)CC1)c(=O)n2C)c1cccc(C(F)F)c1F (stereo partly shown) [Example 29-15] showed an IC50 of 0.0422 µM.
